In data set [1] the test system is Mycobacterium tuberculosis. Description: Antimycobacterial activity against Mycobacterium tuberculosis H37Rv. In kind it is functional.
In data set [2] the test system is Mycobacterium tuberculosis. Description: Antimycobacterial activity against drug-sensitive Mycobacterium tuberculosis H37Rv. In kind it is functional.
For data set [3], the system named is Mycobacterium tuberculosis. Description: Antimycobacterial activity against Mycobacterium tuberculosis 7H12. Type of data set: functional.
Data set [4] concerns Mycolicibacterium smegmatis. Put plainly: Antimycobacterial activity against Mycobacterium smegmatis. In kind it is functional.
The nature of data set [5]: Cytotoxicity against CHO-K1 cells. In kind it is toxicity, cell-based, Cricetulus griseus. The conditions noted are these: Chinese hamster.
Data set [6] concerns Mycobacterium tuberculosis. Put plainly: Antibacterial activity against non-replicating Mycobacterium tuberculosis H37Rv-LUX assessed as inhibition of bacterial growth incubated for 9 days under anaerobic conditions followed by 28 hrs under aerobic conditions by LORA assay. In kind it is functional. Particulars: time 244 hrs.
Data set [7] has as its system Mycobacterium tuberculosis. Description: Antimycobacterial activity against replicating Mycobacterium tuberculosis H37Rv. In kind it is functional.
In data set [8] the test system is Mycobacterium tuberculosis. Put plainly: Antimycobacterial activity against Mycobacterium tuberculosis Erdman infected in BALB/c mouse model assessed as log reduction of bacterial load in lung at 200 mg/kg, po administered 5 days a week for 30 days untill day 58. In kind it is functional. Particulars: time 58 day.
The nature of data set [9]: Cytotoxicity against African green monkey Vero cells assessed as reduction in cell viability. In kind it is toxicity, cell-based, Chlorocebus sabaeus. Particulars: for IC50: African green monkey.
The nature of data set [10]: Microsomal stability in human liver microsomes assessed as half life. In kind it is ADME, Microsome. (Microsomes from liver hold many membrane-bound enzymes, among them those of drug oxidation.)
Data set [11] can be described thus: Aqueous solubility of the compound. The conditions noted are these: aqueous medium. Type of data set: physicochemical.
Data set [12] can be described thus: Selectivity index, ratio of IC50 for cytotoxicity against African green monkey Vero cells to MIC90 for antimycobacterial activity against XDR-Mycobacterium tuberculosis TF274. Type of data set: toxicity, cell-based. The conditions noted are these: read-out: Selectivity Index.
Data set [13] deals with Mycobacterium tuberculosis. Put plainly: Antimycobacterial activity against MDR-Mycobacterium tuberculosis KZN494. In kind it is functional.
Data set [14] has as its system Mycobacterium tuberculosis. Description: Antimycobacterial activity against MDR-Mycobacterium tuberculosis V2475. Type of data set: functional.
The nature of data set [15]: Selectivity index, ratio of IC50 for cytotoxicity against African green monkey Vero cells to MIC90 for antimycobacterial activity against MDR-Mycobacterium tuberculosis V2475. In kind it is toxicity, cell-based. Particulars: read-out: Selectivity Index.
A short description of data set [16]: Selectivity index, ratio of IC50 for cytotoxicity against African green monkey Vero cells to MIC90 for antimycobacterial activity against XDR-Mycobacterium tuberculosis R506. Particulars: read-out: Selectivity Index. Type of data set: toxicity, cell-based.
The nature of data set [17]: Selectivity index, ratio of IC50 for cytotoxicity against African green monkey Vero cells to MIC90 for antimycobacterial activity against drug-sensitive Mycobacterium tuberculosis V4207. In kind it is toxicity, cell-based. The conditions noted are these: read-out: Selectivity Index.
Data set [18] can be described thus: Selectivity index, ratio of IC50 for cytotoxicity against African green monkey Vero cells to MIC90 for antimycobacterial activity against drug-sensitive Mycobacterium tuberculosis H37Rv. In kind it is toxicity, cell-based. Particulars: read-out: Selectivity Index.
Data set [19] relates to Mycobacterium tuberculosis. Description: Antimycobacterial activity against XDR-Mycobacterium tuberculosis R506. Type of data set: functional.
Data set [20] can be described thus: Selectivity index, ratio of IC50 for cytotoxicity against African green monkey Vero cells to MIC90 for antimycobacterial activity against MDR-Mycobacterium tuberculosis KZN494. Type of data set: toxicity, cell-based. Particulars: read-out: Selectivity Index.
Data set [21] relates to Mycobacterium tuberculosis. Put plainly: Antimycobacterial activity against drug-sensitive Mycobacterium tuberculosis V4207. In kind it is functional.
Data set [22] has as its system Mycobacterium tuberculosis. Description: Antimycobacterial activity against XDR-Mycobacterium tuberculosis TF274. In kind it is functional.

The record followed here is ChEMBL document CHEMBL5257110, “Recent developments of imidazo[1,2-a]pyridine analogues as antituberculosis agents” (RSC Med Chem, 2023).

In brackets after ≈: the same amount, converted by molar mass.

Usually MIC99 stands for the lowest concentration that inhibits either 99% of growth or 99% of the strains tested, depending on the study. `Cc1ccn2c(C(=O)NCc3ccccc3)c(C)nc2c1` had an MIC99 in [1] of 0.2 µM (≈ 0.0559 µg/mL).

A word on the MIC90: it is the lowest concentration that inhibits either 90% of growth or 90% of the strains tested, depending on the study. Take `Cc1ccc2nc(C)c(C(=O)NCc3cccs3)n2c1`: the MIC90 in data set [2] turned out to be 0.22 µM (≈ 0.0628 µg/mL).

As for `CC(C)(C)OC(=O)N1CCN(c2nc(=O)c3cc(C(F)(F)F)cc([N+](=O)[O-])c3s2)CC1`, the MIC90 in data set [3] turned out to be 0.28 µM (≈ 0.129 µg/mL).

In data set [1], `Cc1ccn2nc(C)c(C(=O)NCc3ccc(C(F)(F)F)cc3)c2c1` displayed an MIC90 of 0.069 µM (≈ 0.024 µg/mL).

In data set [1], `COc1ccn2nc(C)c(C(=O)NCc3ccc(N4CCC(c5ccc(OC(F)(F)F)cc5)CC4)cc3)c2c1` registered an MIC90 of 0.011 µM (≈ 0.00592 µg/mL).

With `Cc1ccn2c(C(=O)N3CCN(c4nc(=O)c5cc(C(F)(F)F)cc([N+](=O)[O-])c5s4)CC3)c(C)nc2c1`, the MIC90 in data set [3] came to 2.1 µM (≈ 1.12 µg/mL).

For the compound `Cc1ccn2c(C(=O)NCc3ccc(C(=O)OCc4ccccc4)cc3)c(C)nc2c1`, the MIC90 in data set [3] is 0.21 µM (≈ 0.0868 µg/mL).

On to `Cc1ccn2c(C(=O)NCc3ccc(C(=O)N4CCN(c5nc(=O)c6cc(C(F)(F)F)cc([N+](=O)[O-])c6s5)CC4)cc3)c(C)nc2c1`, for which, in [3], the MIC90 was more than 10 µM.

Consider `Cc1nc(-c2ccc(F)cc2)sc1-c1cn2ccccc2n1`, for which, in [4], the MIC90 came to 90.2 µM (≈ 27.9 µg/mL).

In general, IC50 refers to the concentration at which inhibition is half-maximal. With `N#Cc1cccc(Nc2cc(C(F)(F)F)ccc2-c2cnc3ccccn23)c1`, the MIC90 in data set [1] is 6.08 µM (≈ 2.3 µg/mL). Further, in data set [5], half-maximal inhibition (IC50) was put at 217 µM.

A word on the CC50: it is the concentration that lowers cell viability or growth by half. What is called half-life is the time in which the quantity being followed falls by half. The term solubility denotes the concentration that dissolves in the medium under given conditions. In the case of `Cc1cn2c(C(=O)NCc3ccc(N4CCN(c5ccc(OC(F)(F)F)cc5)CC4)c(F)c3)c(C)nc2s1`, the MIC90 came to 1.1 µM (≈ 0.602 µg/mL) in [6] and 0.008 µM (≈ 0.00438 µg/mL) in [7]. Also, the Activity in [8] is listed as 0.3 log10CFU. In addition, the 50% cytotoxic concentration (CC50) in [9] (chlorocebus sabaeus) is more than 100 µM. The half-life in data set [10] worked out at 28 min. This compound also had a solubility in [11] of 50 µM (≈ 27.4 µg/mL).

In data set [4], `Cc1nc(-c2ccc(F)cc2)sc1-c1cn2ccc(Br)cc2n1` gave an MIC90 of 53.6 µM (≈ 20.8 µg/mL).

Take `CCc1ccn2c(C(=O)NCc3ccc(C)cc3)c(C)nc2c1`: the MIC90 in [7] stood at 0.004 µM (≈ 0.00123 µg/mL).

For `Cc1ccc(CNC(=O)Cc2c(C)nc3ccc(C)cn23)cc1`, the MIC90 in data set [1] amounted to 1.7 µM (≈ 0.523 µg/mL).

In data set [4], `Cc1nc(-c2ccccc2)sc1-c1cn2ccc(Br)cc2n1` returned an MIC90 of 67.5 µM (≈ 25 µg/mL).

For `Cc1ccc2nc(C)c(C(=O)NCCCC3CCCCC3)n2c1`, the selectivity ratio in data set [12], in [15], in data set [16], in data set [17], in [18] and in [20] was not below 1024 in each case. Moreover, the MIC90 came out at 0.05 µM (≈ 0.0157 µg/mL) in [13]; 0.2 µM (≈ 0.0627 µg/mL) in data set [14]; 0.1 µM (≈ 0.0313 µg/mL) in data set [19]; 0.1 µM (≈ 0.0313 µg/mL) in data set [2]; 0.1 µM (≈ 0.0313 µg/mL) in data set [21]; 0.2 µM (≈ 0.0627 µg/mL) in data set [22]. In addition, the half-maximal inhibitory concentration (IC50) in data set [9] worked out at 120 µM.

`Cc1nc2ccc(Cl)cn2c1C(=O)NCCCC1CCCCC1`: the selectivity ratio in [12], in data set [15], in [16], in data set [17], in data set [18] and in data set [20] was not below 1024 in each case. The MIC90 in data set [13] amounted to 0.09 µM (≈ 0.03 µg/mL); in data set [14], 0.37 µM (≈ 0.124 µg/mL); in [19], 0.75 µM (≈ 0.25 µg/mL); in [2], 0.19 µM (≈ 0.0634 µg/mL); in data set [21], 0.37 µM (≈ 0.124 µg/mL); in data set [22], 1.5 µM (≈ 0.501 µg/mL). Also, in data set [9], the IC50 is not below 191 µM.

Turning to `Cc1ccc(-c2nc3ccc(C)cn3c2CC(=O)N(C)C)cc1` [ZOLPIDEM], the MIC90 in data set [7] was found to be 10 µM (≈ 3.07 µg/mL).
